Measurements: patent EP3620052A1, “USE OF PHENOXYPYRIDINYL-SUBSTITUTED (1H-1,2,4-TRIAZOL-1-YL)ALCOHOLS FOR CONTROLLING FUNGICIDAL DISEASES IN MAIZE” (Bayer Aktiengesellschaft, priority 2018, dated 2020)

Columns and labels:
Format in all cases: in vivo
maize [1] = experiment: Field trials in Brazilian maize: crop response (phytotoxicity) after foliar spray; settings: 125 g a.i./ha, two foliar applications, Brazil field trials, assessed 14 - 28 days after second application, 5 trials
Procedure: (§1) In 2017/2018 five field trials in maize were conducted in order to study the effect of compounds of formula (I) and standard azole-type fungicides regarding disease control against leaf diseases and crop safety.
(§2) The trials were done under practical field conditions in Brazil in the Safrinha season with the commercially available maize varieties P30F53 Pioneer, P30F53 RR - Roundup Ready® Pioneer, P30F53YHV Pioneer, DKB 390 Dekalb® and DKB 390 IPRO3 Dekalb®.
(§3) These trials were conducted in the following federal states in Brazil: Goias, Mato Grosso, Minas Gerais, Parana and Sao Paulo.
(§4) The tested compounds / reference products, their respective formulation type and rates of application [g a.i./ha] Tab.1: Products, formulations and rates.
(§5) The products were sprayed twice in sequential, foliar applications at growth stages BBCH EC 39 - 55 and BBCH EC 51 - 69 with a spray interval of about 2 weeks with backpack or bicycle applicators.
(§6) The water quantity for the applications was 150 l / ha.
(§7) About 14 - 28 days after the second application crop response and disease control were assessed visually by rating the damaged leaves or plant parts.

Cercospora zeae maydis = experiment: Field trials in Brazilian maize: disease control (Abbott efficacy) after foliar spray; settings: 125 g a.i./ha, two foliar applications, Brazil, 2 trials; untreated control 40 % disease severity
Procedure: as §1, §2, §3, §4, §5, §6, §7
(§8) The efficacy against the pathogens listed in table 2 was calculated according to Abbott's formula: Efficacy (%) = (X−Y)/X × 100, [formula] wherein X is the disease severity in the control and Y is the disease severity in the treatment, and is shown in table 2 [%].

Helminthosporium spp. = experiment: as above; settings: 125 g a.i./ha, two foliar applications, Brazil, 3 trials; untreated control 22 % disease severity
Procedure: as §1, §2, §3, §4, §5, §6, §7, §8

Phaeosphaeria maydis = experiment: as above; settings: 125 g a.i./ha, two foliar applications, Brazil, 3 trials; untreated control 44 % disease severity
Procedure: as §1, §2, §3, §4, §5, §6, §7, §8

Puccinia polysora = experiment: as above; settings: 125 g a.i./ha, two foliar applications, Brazil, 1 trial; untreated control 73 % disease severity
Procedure: as §1, §2, §3, §4, §5, §6, §7, §8

Puccinia sorghi = experiment: as above; settings: 125 g a.i./ha, two foliar applications, Brazil, 2 trials; untreated control 20 % disease severity
Procedure: as §1, §2, §3, §4, §5, §6, §7, §8

maize [2] = experiment: Field trials in Brazilian maize: yield relative to untreated control; settings: 125 g a.i./ha, two foliar applications, Brazil, 3 trials; untreated control (43 dt/ha) = 100%
Procedure: as §1, §2, §3, §4, §5, §6
The yield of the untreated control (43 dt/ha) is set to 100% and the yield values for the other treatments are given in percent thereof. Tab. 2: Impact of foliar applications of tested compounds on crop response, disease control and yield.

maize [3] = experiment: Field trials in North American maize: crop response (phytotoxicity) after foliar spray; settings: for PTX (%): one foliar application BBCH EC 63 - 65, Canada/USA, 3 trials
[4] = tested on: Cochliobolus heterostrophus; experiment: Field trials in North American maize: disease control (Abbott efficacy) after foliar spray; settings: one foliar application, 1 trial, untreated control 12 % disease severity
Procedure: (§9) In 2018 eight field trials in maize were conducted in order to study the effect of compounds of formula (I) and standard azole-type fungicides regarding disease control against leaf diseases.
(§10) The trials were done under practical field conditions in Canada and the USA with the commercially available maize varieties DKC 62-08 Dekalb®, DKC 35-88 RIB RR2 BT Dekalb®, P7958 AM RR2 LL BT (Marc Hutlet Seeds Ltd.), NK1120-3122 RR+GLU+ECB+CRW (Syngenta), P9608AM LL RR2 CRW ECB (Pioneer) and Golden Bantam (conventional variety available from various companies worldwide).
(§11) These trials were conducted in the following provinces in Canada and federal states in North America: Ontario (Canada) and Georgia, Indiana, Iowa, Michigan, Ohio (all USA).
(§12) The tested compounds / reference products, their respective formulation type and rates of application [g a.i./ha] Tab.3: Products, formulations and rates.
(§13) In table 4 details of the formulations of (1-02) used in the different trials are listed. Tab.4: Formulations of (1-02) and a tank mixed surfactant used in different trials.
(§14) The products were sprayed with one foliar application at growth stage BBCH EC 63 - 65 with a high clearance sprayer or a backpack applicator.
(§15) The water quantity for the applications varied from 150 to 300 l/ha.
(§16) About 23 - 35 days after application the disease control was assessed visually by rating the damaged leaves or plant parts.
(§17) The efficacy against the pathogens listed in table 5 was calculated according to Abbott's formula: Efficacy (%) = (X−Y)/X × 100, [formula] wherein X is the disease severity in the control and Y is the disease severity in the treatment, and is shown in table 5 [%].

Kabatiella zeae = experiment: as above; settings: one foliar application, 1 trial, untreated control 17 % disease severity
Procedure: as §9, §10, §11, §12, §13, §14, §15, §16, §17

Setosphaeria turcica = experiment: as above; settings: one foliar application, 2 trials, untreated control 18 % disease severity
Procedure: as §9, §10, §11, §12, §13, §14, §15, §16, §17

maize [5] = experiment: Field trials in North American maize: yield relative to untreated control; settings: for Yield (% of Control): one foliar application, 2 trials, untreated control (112 dt/ha) = 100%
Procedure: as §9, §10, §11, §12, §13, §14, §15
The yield of the untreated control (112 dt/ha) is set to 100% and the yield values for the other treatments are given in percent thereof Tab. 5: Impact of foliar applications of tested compounds on disease control.

[6] = Canada/USA field trials, 60 -125 g a.i./ha

SMILES: CC(O)(Cn1cncn1)c1ccc(Oc2ccc(Cl)cc2)nc1C(F)(F)F (centres unmarked) [(I-01), 2-[6-(4-chlorophenoxy)-2-(trifluoromethyl)-3-pyridyl]-1-(1,2,4-triazol-1-yl)propan-2-ol]
- PTX (%) (maize [1]): 0%
- Cercospora zeae maydis (% efficacy) (Cercospora zeae maydis): 61%
- Helminthosporium spp. (% efficacy) (Helminthosporium spp.): 65%
- Phaeosphaeria maydis (% efficacy) (Phaeosphaeria maydis): 68%
- Puccinia polysora (% efficacy) (Puccinia polysora): 76%
- Puccinia sorghi (% efficacy) (Puccinia sorghi): 71%
- Yield (% of Control) (maize [2]): 123 % of Control

SMILES: CC(O)(Cn1cncn1)c1ccc(Oc2ccc(Br)cc2)nc1C(F)(F)F (centres unmarked) [(I-02), 2-[6-(4-bromophenoxy)-2-(trifluoromethyl)-3-pyridyl]-1-(1,2,4-triazol-1-yl)propan-2-ol]
- PTX (%) (maize [1]): 0%
- Cercospora zeae maydis (% efficacy) (Cercospora zeae maydis): 70%
- Helminthosporium spp. (% efficacy) (Helminthosporium spp.): 63%
- Phaeosphaeria maydis (% efficacy) (Phaeosphaeria maydis): 64%
- Puccinia polysora (% efficacy) (Puccinia polysora): 74%
- Puccinia sorghi (% efficacy) (Puccinia sorghi): 68%
- Yield (% of Control) (maize [2]): 112 % of Control
- PTX (%) (maize [3]; 60 g a.i./ha (100 EC or 250 SC)): 0%
- PTX (%) (maize [3]; 125 g a.i./ha (100 EC or 250 SC)): 0%
- crop safety (conclusion in words) (maize [3]; [6]): completely safe on the crop
- Cochliobolus heterostrophus (% efficacy) ([4]; 60 g a.i./ha): 91%
- Cochliobolus heterostrophus (% efficacy) ([4]; 125 g a.i./ha): 97%
- Kabatiella zeae (% efficacy) (Kabatiella zeae; 60 g a.i./ha): 89%
- Kabatiella zeae (% efficacy) (Kabatiella zeae; 125 g a.i./ha): 95%
- Setosphaeria turcica (% efficacy) (Setosphaeria turcica; 60 g a.i./ha): 57%
- Setosphaeria turcica (% efficacy) (Setosphaeria turcica; 125 g a.i./ha): 61%
- Yield (% of Control) (maize [5]; 60 g a.i./ha): 120 % of Control
- Yield (% of Control) (maize [5]; 125 g a.i./ha): 115 % of Control
- impact on yield (conclusion in words) (maize [5]; [6]): positive impact on yield
